Reference: ChEMBL document CHEMBL5150074, “Structure-Based Design of a Dual-Targeted Covalent Inhibitor Against Papain-like and Main Proteases of SARS-CoV-2” (J Med Chem, 2022)

Columns and labels:
[1] = Binding affinity to SARS-CoV-2 MPro C145A mutant assessed as dissociation constant by isothermal titration calorimetry assay; set-up: species or system Severe acute respiratory syndrome coronavirus 2
[2] = Binding affinity to SARS-CoV-2 PLpro C111A mutant assessed as dissociation constant by isothermal titration calorimetry assay; set-up: species or system Severe acute respiratory syndrome coronavirus 2

`Cl.O=C1C=C(Nc2ccccc2N2CCNCC2)C2=NS(=O)(=O)c3cccc1c32` gave a Kd [1] of 1.5 µM and a Kd [2] of 2.3 µM.
